Target: Pseudomonas aeruginosa LpxC enzyme (Pseudomonas aeruginosa (strain ATCC 15692 / DSM 22644 / CIP 104116 / JCM 14847 / LMG 12228 / 1C / PRS 101 / PAO1), UniProt P47205)
Experiment: biochemical
Assay type: biochemical
Settings: class symbols A/B/C by IC50; Table 3; read-out: Enzyme inhibitory activity (inhibitory activity on Pseudomonas aeruginosa LpxC enzyme)

| IC50 | SMILES |
| --- | --- |
| > 0.1 µM | CNC(=O)C(C(=O)NO)N(C)C(=O)c1ccc(C#CC2CC2)cc1 (centres unmarked) [Compound 503, 2-[{[4-(cyclopropylethynyl)phenyl]carbonyl}(methyl)amino]-N-hydroxy-N′-methylpropanediamide] |
| 0.01 to 0.1 µM | CNC(=O)C(C(=O)NO)N(C)C(=O)c1ccc(C#Cc2cnn(CCOC)c2)cc1 (centres unmarked) [Compound 518, N-hydroxy-2-{[(4-{[1-(2-methoxyethyl)-1H-pyrazol-4-yl]ethynyl}phenyl)carbonyl](methyl)amino}-N′-methylpropanediamide] |
| < 0.01 µM | CNC(=O)[C@@](C)(C(=O)NO)N(C)C(=O)c1ccc(C#C/C=C/C2CCOCC2)cc1 [Compound 590, (2S)-N-hydroxy-N′,2-dimethyl-2-(methyl {4-[(3E)-4-(tetrahydro-2H-pyran-4-yl)but-3-en-1-yn-1-yl]benzoyl}amino)propanediamide] |
| < 0.01 µM | CCO/N=C/c1ccc(C#Cc2ccc(C(=O)N(C)C(C(=O)NC)C(=O)NO)cc2)o1 (centres unmarked) [Compound 501, 2-[{[4-({5-[(E)-(ethoxyimino)methyl]furan-2-yl}ethynyl)phenyl]carbonyl}(methyl)amino]-N-hydroxy-N′-methylpropanediamide] |
| < 0.01 µM | CCOC1CN(Cc2ccc(C#Cc3ccc(C(=O)N(C)C(C(=O)NC)C(=O)NO)cc3)cc2Cl)C1 (centres unmarked) [Compound 579, 2-[{[4-({3-chloro-4-[(3-ethoxyazetidin-1-yl)methyl]phenyl}ethynyl)phenyl]carbonyl}(methyl)amino]-N-hydroxy-N′-methylpropanediamide] |

Same assay, conditions: inhibitory activity on Pseudomonas aeruginosa LpxC enzyme, class symbols A/B/C; read-out: Enzyme inhibitory activity

| IC50 | SMILES |
| --- | --- |
| < 0.01 µM | CNC(=O)C(C)(C(=O)NO)N(C)C(=O)c1ccc(-c2ccc(OCCCN3CCOCC3)cc2)cc1 (centres unmarked) [Compound 350, N-hydroxy-N′,2-dimethyl-2-[methyl({4′-[3-(morpholin-4-yl)propoxy]biphenyl-4-yl}carbonyl)amino]propanediamide] |
| < 0.01 µM | CNC(=O)C(C(=O)NO)N(C)C(=O)c1ccc(-c2ccc(NC3CCC3)cc2)cc1 (centres unmarked) [Compound 268, 2-[{[4′-(cyclobutylamino)biphenyl-4-yl]carbonyl}(methyl)amino]-N-hydroxy-N′-methylpropanediamide] |
| 0.01 to 0.1 µM | O=C(NC(C(=O)NO)C(=O)NCC1CNCCO1)c1ccc(-c2ccc(OCCO)cc2)cc1 (centres unmarked) [Compound 162, N-hydroxy-2-({[4′-(2-hydroxyethoxy)biphenyl-4-yl]carbonyl}amino)-N′-(morpholin-2-ylmethyl)propanediamide] |
| < 0.01 µM | CNC(=O)C(C(=O)NO)N(C)C(=O)c1ccc(-c2ccc3[nH]ccc3c2)cc1 (centres unmarked) [Compound 201, N-hydroxy-2-{[4-(1H-indol-5-yl)benzoyl](methyl)amino}-N′-methylpropanediamide] |
| 0.01 to 0.1 µM | CNC(=O)C(C(=O)NO)N(C)C(=O)c1ccc(N2CC(c3ccccc3)C2)cc1 (centres unmarked) [Compound 249, N-hydroxy-N′-methyl-2-{methyl[4-(3-phenylazetidin-1-yl)benzoyl]amino}propanediamide] |
| 0.01 to 0.1 µM | NC(=O)C(NC(=O)c1ccc(-c2ccccc2)cc1)C(=O)NO (centres unmarked) [Compound 111, 2-[(biphenyl-4-ylcarbonyl)amino]-N-hydroxypropanediamide] |
| 0.01 to 0.1 µM | CNC(=O)C(C(=O)NO)N(C)C(=O)c1ccc(-c2ccnc(C)c2)cc1 (centres unmarked) [Compound 451, N-hydroxy-N′-methyl-2-(methyl {[4-(2-methylpyridin-4-yl)phenyl]carbonyl}amino)propanediamide] |
| < 0.01 µM | CNC(=O)[C@@](C)(C(=O)NO)N(C)C(=O)c1ccc(C#Cc2ccc(CCN3CCCOCC3)cc2)cc1 [Compound 438, (2S)-N-hydroxy-N′,2-dimethyl-2-{methyl[4-({4-[2-(1,4-oxazepan-4-yl)ethyl]phenyl}ethynyl)benzoyl]amino}propanediamide] |
| > 0.1 µM | CNC(=O)C(C(=O)NO)N(C)C(=O)c1ccc(OC(F)(F)C(F)F)cc1 (centres unmarked) [Compound 47, N-hydroxy-N′-methyl-2-{methyl[4-(1,1,2,2-tetrafluoroethoxy)benzoyl]amino}propanediamide] |
| 0.01 to 0.1 µM | CNC(=O)C(C(=O)NO)N(C)C(=O)c1ccc(C#Cc2csc(COC)c2)cc1 (centres unmarked) [Compound 436, N-hydroxy-2-[(4-{[5-(methoxymethyl)thiophen-3-yl]ethynyl}benzoyl)(methyl)amino]-N′-methylpropanediamide] |
| > 0.1 µM | CNC(=O)C(C)(NC(=O)c1ccc(-c2ccccc2)cc1)C(=O)NO (centres unmarked) [Compound 164, 2-[(Biphenyl-4-ylcarbonyl)amino]-N-hydroxy-N′,2-dimethylpropanediamide] |
| < 0.01 µM | CCNc1ccc(-c2ccc(C(=O)N(C)C(C(=O)NC)C(=O)NO)cc2)cc1F (centres unmarked) [Compound 230, 2-[{[4′-(ethylamino)-3′-fluorobiphenyl-4-yl]carbonyl}(methyl)amino]-N-hydroxy-N′-methylpropanediamide] |
| < 0.01 µM | CNC(=O)C(C(=O)NO)N(C)C(=O)c1ccc(-c2ccc(NCCO)cc2)cc1 (centres unmarked) [Compound 179, N-hydroxy-2-[({4′-[(2-hydroxyethyl)amino]biphenyl-4-yl}carbonyl)(methyl)amino]-N′-methylpropanediamide] |
| < 0.01 µM | Cn1nccc1CNC(=O)C(NC(=O)c1ccc(-c2ccc(OCCO)cc2)cc1)C(=O)NO (centres unmarked) [Compound 146, N-hydroxy-2-({[4′-(2-hydroxyethoxy)biphenyl-4-yl]carbonyl}amino)-N′-[(1-methyl-1H-pyrazol-5-yl)methyl]propanediamide] |
| < 0.01 µM | CNC(=O)C(C(=O)NO)N(C)C(=O)c1ccc(-c2c(F)c(F)c(NC)c(F)c2F)cc1 (centres unmarked) [Compound 72, N-hydroxy-N′-methyl-2-(methyl {[2′,3′,5′,6′-tetrafluoro-4′-(methylamino)biphenyl-4-yl]carbonyl}amino)propanediamide] |
| < 0.01 µM | CNC(=O)C(C(=O)NO)N(C)C(=O)c1ccc(-c2ccc(NC)c(C(F)(F)F)c2)cc1 (centres unmarked) [Compound 68, N-hydroxy-N′-methyl-2-(methyl{[4′-(methylamino)-3′-(trifluoromethyl)biphenyl-4-yl]carbonyl}amino)propanediamide] |
| < 0.01 µM | O=C(NC(C(=O)NO)C(=O)NCc1cncs1)c1ccc(-c2ccc(OCCO)cc2)cc1 (centres unmarked) [Compound 11, N-hydroxy-2-({[4′-(2-hydroxyethoxy)biphenyl-4-yl]carbonyl}amino)-N′-(1,3-thiazol-5-ylmethyl)propanediamide] |
| 0.01 to 0.1 µM | CNC(=O)C(C(=O)NO)N(C)C(=O)c1ccc(-c2ccc(OCCOCCO)cc2)cc1 (centres unmarked) [Compound 15, N-hydroxy-2-[({4′-[2-(2-hydroxyethoxy)ethoxy]biphenyl-4-yl}carbonyl)(methyl)amino]-N′-methylpropanediamide] |
| < 0.01 µM | O=C(NC(C(=O)NO)C(=O)NCCc1ccccn1)c1ccc(-c2ccc(OCCO)cc2)cc1 (centres unmarked) [Compound 151, N-hydroxy-2-({[4′-(2-hydroxyethoxy)biphenyl-4-yl]carbonyl}amino)-N′-[2-(pyridin-2-yl)ethyl]propanediamide] |
| > 0.1 µM | CNC(=O)C(C(=O)NO)N(C)C(=O)c1ccc(-c2ncccc2F)cc1 (centres unmarked) [Compound 107, 2-{[4-(3-fluoropyridin-2-yl)benzoyl](methyl)amino}-N-hydroxy-N′-methylpropanediamide] |
| > 0.1 µM | CN(C(=O)c1ccc(-c2ccccc2)cc1)C(C(=O)NO)C(=O)NC1CC1 (centres unmarked) [Compound 175, 2-[(biphenyl-4-ylcarbonyl)(methyl)amino]-N-cyclopropyl-N′-hydroxypropanediamide] |
| 0.01 to 0.1 µM | CNC(=O)C(C(=O)NO)N(C)C(=O)c1ccc(C#Cc2ccc(N3CCN(C)CC3)cc2)cc1 (centres unmarked) [Compound 473, N-hydroxy-N′-methyl-2-{methyl[(4-{[4-(4-methylpiperazin-1-yl)phenyl]ethynyl}phenyl)carbonyl]amino}propanediamide] |
| > 0.1 µM | CCCNC(=O)C(C(=O)NO)N(C)C(=O)c1ccc(-c2ccccc2)cc1 (centres unmarked) [Compound 171, 2-[(biphenyl-4-ylcarbonyl)(methyl)amino]-N-hydroxy-N′-propylpropanediamide] |
| 0.01 to 0.1 µM | CNC(=O)C(C(=O)NO)N(C)C(=O)c1ccc(C#Cc2ccnc(C)c2)cc1 (centres unmarked) [Compound 464, N-hydroxy-N′-methyl-2-[methyl({4-[(2-methylpyridin-4-yl)ethynyl]phenyl}carbonyl)amino]propanediamide] |
| 0.01 to 0.1 µM | CNC(=O)C(C(=O)NO)N(C)C(=O)c1ccc(C#Cc2ccc(CNCCC(C)(C)O)cc2)cc1 (centres unmarked) [Compound 323, N-hydroxy-2-[({4-[(4-{[(3-hydroxy-3-methylbutyl)amino]methyl}phenyl)ethynyl]phenyl}carbonyl)(methyl)amino]-N′-methylpropanediamide] |
| > 0.1 µM | CNC(=O)C(C(=O)NO)N(C)C(=O)c1ccc(-c2cccc(C)n2)cc1 (centres unmarked) [Compound 295, N-hydroxy-N′-methyl-2-(methyl {[4-(6-methylpyridin-2-yl)phenyl]carbonyl}amino)propanediamide] |
| < 0.01 µM | CNC(=O)C(C(=O)NO)N(C)C(=O)c1ccc(-c2ccc(OC(F)(F)C(F)F)cc2)cc1 (centres unmarked) [Compound 83, N-hydroxy-N′-methyl-2-(methyl {[4′-(1,1,2,2-tetrafluoroethoxy)biphenyl-4-yl]carbonyl}amino)propanediamide] |
| 0.01 to 0.1 µM | CNC(=O)C(C(=O)NO)N(C)C(=O)c1ccc(-c2ccncc2F)cc1 (centres unmarked) [Compound 448, 2-[{[4-(3-fluoropyridin-4-yl)phenyl]carbonyl}(methyl)amino]-N-hydroxy-N′-methylpropanediamide] |
| < 0.01 µM | CNC(=O)C(C(=O)NO)N(C)C(=O)c1ccc(-c2ccc(OCC(C)(C)O)cc2)cc1 (centres unmarked) [Compound 280, N-hydroxy-2-[{[4′-(2-hydroxy-2-methylpropoxy)biphenyl-4-yl]carbonyl}(methyl)amino]-N′-methylpropanediamide] |
| > 0.1 µM | CNC(=O)C(C(=O)NO)N(C)C(=O)c1ccc(OC(F)(F)F)cc1 (centres unmarked) [Compound 22, N-hydroxy-N′-methyl-2-{methyl[4-(trifluoromethoxy)benzoyl]amino}propanediamide] |
